Active and inactive are the calls of the source. No cut-off for these calls is given here.

Series [1] can be described thus: Stability of the compound in water at 100 uM after 24 hr. The settings on record: buffer. It counts as physicochemical.
Series [2] deals with Bel-7402. Nature of the series: Cytotoxicity against Homo sapiens (human) Bel7402 cells assessed as reduction of cell number up to 250 umol/L after 12 hr by MTT assay. It counts as functional, cell-based. (In general: Tetrazolium dyes change colour on reduction, which living cells bring about.)
Series [3] relates to Bel-7402. In words: Cytotoxicity against Homo sapiens (human) Bel7402 cells assessed as reduction of cell number at 50 umol/L after 12 hr by MTT assay. It is filed as functional, cell-based.
Series [4] relates to Bel-7402. In words: Cytotoxicity against Homo sapiens (human) Bel7402 cells assessed as reduction of cell number after 12 hr by MTT assay. It is filed as functional, cell-based. As to conditions: Bel-7402, 12 h.
Series [5] relates to B16. Nature of the series: Cytotoxicity against Mus musculus (mouse) B16 cells assessed as reduction of cell number after 12 hr by MTT assay. It is filed as functional, cell-based. As to conditions: B16, 12 h.
In series [6] the test system is B16. In words: Cytotoxicity against Mus musculus (mouse) B16 cells assessed as reduction of cell number up to 250 umol/L after 12 hr by MTT assay. It is filed as functional, cell-based.
Series [7] is described as follows: Stability of the compound in RPMI-1640 medium at 100 uM after 6 days. It is filed as physicochemical. The settings on record: 144 h.
For series [8], the system named is B16. In words: Cytotoxicity against Mus musculus (mouse) B16 cells assessed as reduction of cell number at 50 umol/L after 12 hr by MTT assay. It is filed as functional, cell-based.

A word on the IC50: it is the point on the concentration scale where inhibition reaches its midpoint. In the case of `CC1(C)[C@@H](O)CC[C@]2(C)[C@H]3C(=O)C=C4[C@@H]5C[C@@](C)(C(=O)NCCCCCCNC(=O)CCCC[C@@H]6SC[C@@H]7NC(=O)N[C@@H]76)CC[C@]5(C)CC[C@@]4(C)[C@]3(C)CC[C@@H]12`, the Stability result in series [1] and in series [7] was “Stable” in each case. Also, the outcome in the series on Bel-7402 [2] and with B16 [6] was Active. Moreover, the outcome in the series with Bel-7402 [3] and with B16 [8] was inactive. Further, the IC50 was 175 µM with Bel-7402 [4] and 170 µM in the series with B16 [5].

Consider `CC1(C)[C@@H](O)CC[C@]2(C)[C@H]3C(=O)C=C4[C@@H]5C[C@@](C)(C(=O)O)CC[C@]5(C)CC[C@@]4(C)[C@]3(C)CC[C@@H]12` [ENOXOLONE], for which the values for the Stability entry in series [1] and in series [7] were “Unstable” and “Stable”, respectively. The result in the series with Bel-7402 [2] and in the series on B16 [6] was Active. Further, the result in the series with Bel-7402 [3] and with B16 [8] was inactive.

The values are drawn from ChEMBL document CHEMBL3044737, “Synthesis of biotinylated 18-glycyrrhetinic acid and its effect on tumor cells activity” (Med Chem Res, 2009).
